How the values were obtained:
[1] = Properties of respective derivatives (solubility); type: physicochemical
rats = experiment: Diuretic effect in rats; type: in vivo, Wister strain male rats; conditions: Rattus norvegicus, po, 5 h, urine volume up to 5 hours, % of control; for response vs control in vivo at 5 mg/kg: dosage 5 mg/kg; for response vs control in vivo at 10 mg/kg: dosage 10 mg/kg; for response vs control in vivo at 20 mg/kg: dosage 20 mg/kg; for response vs control in vivo at 2.5 mg/kg: dosage 2.5 mg/kg; for response vs control in vivo at 50 mg/kg: dosage 50 mg/kg
Method: Wister strain male rats weighing about 200 g were starved overnight and each compound of this invention suspended in 25 ml/kg of physiological saline were administered orally to the 5 animals in each group, and the diuretic effect up to 5 hours after the administration was measured. The diuretic effect is expressed as the average urine volume (%) of the treated group divided by that of the control group.

[2] = Acute oral toxicity in mice; conditions: mouse, in vivo, mortality 7 days after administration
Method: 10 ddY Strain male mice weighing about 20 g were used in each group. Each compound of this invention was suspended in a 5% aqueous gum arabic solution and administered orally. The mortality rate (%) was determined from the number of dead animals 7 days after the administration, and the dosage corresponding to 50% mortality was calculated and expressed as LD50 (mg/kg).

[3] = test system: Carrageenin-Induced Foot Edema; experiment: Inhibition for carrageenin-induced foot edema in rats; type: in vivo, Wister strain male rats; conditions: 1 hour before carrageenin, paw volume 3 hours after, probit method; for ED30: Rattus norvegicus, po, read-out: ED30 (dosage for 30% inhibition of edema)
Method: 10 Wister strain male rats weighing about 120 g were used in each group. Each compound of this invention was suspended in a 5% aqueous arabic gum solution and administered orally to the animals. One hour after the administration, 0.1 ml of a 1% solution of carrageenin in physiological saline as a phlogistic agent was subcutaneously injected into the right hind paw of the rats which had been shaven previously. The volume of the right hind paw was measured before the administration of the phlogistic agent and 3 hours after the administration. The intensity of edema expressed as percent increase in the foot volume was calculated from the […] (1) and the percent inhibition of edema was calculated from the equation (2). [formula]
The effective dosage of each compound for inhibiting edema was expressed as ED30 (mg/kg) by calculating the dosage for 30% inhibition from the percent inhibition of edema according to the probit method.

Row | SMILES | Solubility in methanol, acetone and chloroform [1] | Solubility in water and hexane [1] | response vs control in vivo at 5 mg/kg (rats) [%] | response vs control in vivo at 10 mg/kg (rats) [%] | response vs control in vivo at 20 mg/kg (rats) [%] | LD50 at 168 h [2] [mg/kg] | ED30 [3] [mg/kg] | response vs control in vivo at 2.5 mg/kg (rats) [%] | response vs control in vivo at 25 mg/kg (rats; dosage 25 mg/kg) [%] | response vs control in vivo at 50 mg/kg (rats) [%] | Solubility in ethanol and dichloromethane [1] | response vs control in vivo at 0.5 mg/kg (rats; dosage .5 mg/kg (so in the source)) [%] | ED30 (dosage for 30% inhibition of edema) ([3]; oral) [mg/kg]
1 | CC(=O)N1CCC(=NO)c2cc(Cl)ccc21 [Compound I, 6-Chloro-4-oximino-1-acetyl-1,2,3,4-tetrahydroquinoline] | easily soluble | Sparingly soluble | 131 | 186 | 260 | > 5000 | 39 | – | – | – | – | – | –
2 | CCC(=O)N1CCC(=NO)c2cc(Cl)ccc21 [Compound II, 6-Chloro-4-oximino-1-propionyl-1,2,3,4-tetrahydroquinoline] | easily soluble | Sparingly soluble | 304 | 410 | – | 3490 | 8.8 | 253 | – | – | – | – | –
3 | CCCC(=O)N1CCC(=NO)c2cc(Cl)ccc21 [Compound III, 6-Chloro-4-oximino-1-butyryl-1,2,3,4-tetrahydroquinoline] | easily soluble | Sparingly soluble | 122 | 172 | 240 | > 5000 | 33 | – | – | – | – | – | –
4 | CC(C)C(=O)N1CCC(=NO)c2cc(Cl)ccc21 [Compound IV, 6-Chloro-4-oximino-1-isobutyryl-1,2,3,4-tetrahydroquinoline] | easily soluble | Sparingly soluble | – | – | – | > 5000 | 87 | – | 119 | 211 | – | – | –
5 | CCCCC(=O)N1CCC(=NO)c2cc(Cl)ccc21 [Compound V, 6-Chloro-4-oximino-1-valeryl-1,2,3,4-tetrahydroquinoline] | easily soluble | Sparingly soluble | – | – | – | > 5000 | 140 | – | – | 209 | – | – | –
6 | CC(C)CC(=O)N1CCC(=NO)c2cc(Cl)ccc21 [Compound VI, 6-Chloro-4-oximino-1-isovaleryl-1,2,3,4-tetrahydroquinoline] | easily soluble | Sparingly soluble | – | – | – | > 5000 | 105 | – | – | 196 | – | – | –
7 | O=C(Cc1ccccc1)N1CCC(=NO)c2cc(Cl)ccc21 [Compound VII, 6-Chloro-4-oximino-1-phenylacetyl-1,2,3,4-tetrahydroquinoline] | easily soluble | Sparingly soluble | – | – | – | > 5000 | 140 | – | – | 202 | – | – | –
8 | O=C(C=Cc1ccccc1)N1CCC(=NO)c2cc(Cl)ccc21 [Compound VIII, 6-Chloro-4-oximino-1-cinnamoyl-1,2,3,4-tetrahydroquinoline] | easily soluble | Sparingly soluble | – | – | – | > 5000 | 44 | – | – | 228 | – | – | –
9 | COC(=O)N1CCC(=NO)c2cc(Cl)ccc21 [Compound X, 6-Chloro-4-oximino-1-methoxycarbonyl-1,2,3,4-tetrahydroquinoline] | – | Sparingly soluble | 306 | 371 | – | 4470 | 14 | 188 | – | – | soluble | – | –
10 | COC(=O)N1CCC(=NO)c2cc(Br)ccc21 [Compound XI, 6-Bromo-4-oximino-1-methoxycarbonyl-1,2,3,4-tetrahydroquinoline] | – | Sparingly soluble | – | 293 | – | > 5000 | 83 | – | – | – | soluble | 152 | –
11 | CCOC(=O)N1CCC(=NO)c2cc(F)ccc21 [Compound XII, 6-Fluoro-4-oximino-1-ethoxycarbonyl-1,2,3,4-tetrahydroquinoline] | – | Sparingly soluble | – | 180 | 285 | > 5000 | 86 | – | – | – | soluble | – | –
12 | CCOC(=O)N1CCC(=NO)c2cc(Cl)ccc21 [Compound XIII, 6-Chloro-4-oximino-1-ethoxycarbonyl-1,2,3,4-tetrahydroquinoline] | – | Sparingly soluble | – | 204 | 310 | > 5000 | 49 | – | – | – | soluble | – | –
13 | CCC(=O)N1CCC(=NO)c2cc(F)ccc21 [Compound XV, 6-Fluoro-4-oximino-1-propionyl-1,2,3,4-tetrahydroquinoline] | – | Sparingly soluble | 347 | 425 | – | 3440 | 9.3 | 209 | – | – | soluble | – | –
14 | NS(=O)(=O)c1cc(C(=O)O)c(NCc2ccco2)cc1Cl [Furosemide, reference compound] | – | – | 133 | – | – | – | – | – | – | – | – | – | –
15 | COC(=O)N1CCC(=NO)c2cc(F)ccc21 [IX, 6-Fluoro-4-oximino-1-methoxycarbonyl-1,2,3,4-tetrahydroquinoline] | – | Sparingly soluble | 309 | 408 | – | > 5000 | 22 | 251 | – | – | soluble | – | –
16 | CCCCC1C(=O)N(c2ccccc2)N(c2ccccc2)C1=O [Phenylbutazone, reference compound] | – | – | – | – | – | – | 65 | – | – | – | – | – | 63
17 | CC(=O)N1CCC(=NO)c2cc(Br)ccc21 [XIV, 6-Bromo-4-oximino-1-acetyl-1,2,3,4-tetrahydroquinoline] | – | Sparingly soluble | – | – | 234 | > 5000 | 182 | – | – | – | soluble | – | –
18 | CNC(=O)N1CCC(=NO)c2cc(Cl)ccc21 [XIX, 6-Chloro-4-oximino-1-methylcarbamoyl-1,2,3,4-tetrahydroquinoline] | – | Sparingly soluble | – | – | – | > 5000 | 62 | – | – | 180 | soluble | – | –
19 | CCC(=O)N1CCC(=NO)c2cc(Br)ccc21 [XVI, 6-Bromo-4-oximino-1-propionyl-1,2,3,4-tetrahydroquinoline] | – | Sparingly soluble | 243 | 380 | – | 4710 | 16 | – | – | – | soluble | – | –
20 | CC(C)C(=O)N1CCC(=NO)c2cc(Br)ccc21 [XVII, 6-Bromo-4-oximino-1-isobutyryl-1,2,3,4-tetrahydroquinoline] | – | Sparingly soluble | – | – | – | > 5000 | 102 | – | – | 173 | soluble | – | –
21 | O=C(C=Cc1ccccc1)N1CCC(=NO)c2cc(Br)ccc21 [XVIII, 6-Bromo-4-oximino-1-cinnamoyl-1,2,3,4-tetrahydroquinoline] | – | Sparingly soluble | – | – | – | > 5000 | 133 | – | – | 203 | soluble | – | –
22 | CNC(=O)N1CCC(=NO)c2cc(Br)ccc21 [XX, 6-Bromo-4-oximino-1-methylcarbamoyl-1,2,3,4-tetrahydroquinoline] | – | Sparingly soluble | – | – | – | > 5000 | 95 | – | – | 197 | soluble | – | –
23 | CN(C)C(=O)N1CCC(=NO)c2cc(F)ccc21 [XXI, 6-Fluoro-4-oximino-1-dimethylcarbamoyl-1,2,3,4-tetrahydroquinoline] | – | Sparingly soluble | – | 128 | 209 | > 5000 | 141 | – | – | – | soluble | – | –
